The values below come from ChEMBL document CHEMBL1127771, “Structure-activity relationships in a series of monocyclic endothelin analogues” (Bioorg Med Chem Lett, 1994).

For assay [1], the target named is T1, Endothelin receptor type B (Rattus norvegicus, UniProt P21451).
T1 sequence (P21451 whole entry): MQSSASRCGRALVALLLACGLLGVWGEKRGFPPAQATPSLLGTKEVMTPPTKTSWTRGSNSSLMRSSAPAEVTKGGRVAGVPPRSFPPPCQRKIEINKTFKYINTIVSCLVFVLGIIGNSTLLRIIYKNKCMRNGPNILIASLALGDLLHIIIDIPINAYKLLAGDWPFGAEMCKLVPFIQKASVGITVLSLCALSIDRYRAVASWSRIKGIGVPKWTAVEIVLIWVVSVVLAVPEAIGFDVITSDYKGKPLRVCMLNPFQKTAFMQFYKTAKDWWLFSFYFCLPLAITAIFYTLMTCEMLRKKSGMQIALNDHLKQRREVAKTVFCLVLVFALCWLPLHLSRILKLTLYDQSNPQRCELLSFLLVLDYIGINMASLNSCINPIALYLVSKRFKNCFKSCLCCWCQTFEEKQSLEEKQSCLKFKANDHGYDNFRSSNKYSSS
Nature of the assay: Binding affinity against endothelin receptor in rat cerebellar membrane (ET-B) from adult blue laurie rat. Format: cell membranes, Cerebellum.

Another assay addresses T2, Endothelin-1 receptor (Rattus norvegicus, UniProt P26684).
T2 sequence (P26684 whole entry): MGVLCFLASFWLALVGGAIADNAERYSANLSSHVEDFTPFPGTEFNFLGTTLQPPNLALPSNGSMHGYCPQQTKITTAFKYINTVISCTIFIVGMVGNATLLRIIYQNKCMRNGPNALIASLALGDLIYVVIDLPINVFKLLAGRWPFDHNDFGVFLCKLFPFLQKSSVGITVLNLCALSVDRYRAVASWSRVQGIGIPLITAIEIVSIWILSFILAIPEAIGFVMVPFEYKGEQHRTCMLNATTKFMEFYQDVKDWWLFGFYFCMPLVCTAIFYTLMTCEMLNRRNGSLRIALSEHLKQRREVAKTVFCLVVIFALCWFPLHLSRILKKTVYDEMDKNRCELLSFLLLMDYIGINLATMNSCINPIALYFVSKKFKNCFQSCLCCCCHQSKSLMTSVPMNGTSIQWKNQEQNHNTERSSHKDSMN
Put plainly: In vitro binding affinity against Endothelin A receptor by using endothelin (ET-1) as radioligand in rat heart ventricle.

The species entered for another assay is Rattus norvegicus. Put plainly: Inhibition of ET-1 induced accumulation of inositol phosphates (IP-3) in rat skin fibroblasts. Format: functional.
Assay [2] addresses T1, Endothelin receptor type B. Nature of the assay: Binding affinity against Endothelin B receptor in rat cerebellar membrane (ET-B) from adult blue laurie rat. Format: cell membranes, Cerebellum.

What is called IC50 is the midpoint of a concentration-inhibition curve. High values mean weaker potency, low ones greater potency.

Where a SMILES comes first, the peptide text is derived from it. Bridges are numbered along the chain shown (N, C = ends). [ ]: non-standard residue; d: D form. Aoc = NCCCCCCCC(=O)O; Ava = NCCCCC(=O)O

For `CC[C@H](C)[C@H](NC(=O)[C@H](CC(=O)O)NC(=O)[C@H](CC(C)C)NC(=O)[C@H](Cc1cnc[nH]1)NC(=O)[C@@H]1CSSC[C@H](N)C(=O)N[C@@H](CO)C(=O)N[C@@H](CO)C(=O)N[C@@H](CC(C)C)C(=O)N[C@@H](CCSC)C(=O)N[C@@H](CC(=O)O)C(=O)N[C@@H](CCCCN)C(=O)N[C@@H](CCC(=O)O)C(=O)N1)C(=O)N[C@H](C(=O)N[C@@H](Cc1c[nH]c2ccccc12)C(=O)O)[C@@H](C)CC` (H-CSSLMDKECHLDIIW-OH; disulfide 1-9), the IC50 in assay [1] is more than 10000 nM; at Endothelin-1 receptor it was 49000 nM. Take `CC[C@H](C)[C@H](NC(=O)[C@H](CC(=O)O)NC(=O)[C@H](CC(C)C)NC(=O)[C@H](Cc1c[nH]cn1)NC(=O)[C@@H]1CSSC[C@H](N)C(=O)N[C@@H](CO)C(=O)N[C@@H](CC(=O)O)C(=O)N[C@@H](CCCCN)C(=O)N[C@@H](CCC(=O)O)C(=O)N[C@@H](C(C)C)C(=O)N[C@@H](Cc2ccc(O)cc2)C(=O)N[C@@H](Cc2ccccc2)C(=O)N1)C(=O)N[C@H](C(=O)N[C@@H](Cc1c[nH]c2ccccc12)C(=O)O)[C@@H](C)CC` (H-CSDKEVYFCHLDIIW-OH; disulfide 1-9) [listing 1 of 2 here]: in the assay listed under Rattus norvegicus, the IC50 is more than 10000 nM. Regarding `CC[C@H](C)[C@H](NC(=O)[C@H](CC(=O)O)NC(=O)[C@H](CC(C)C)NC(=O)[C@H](Cc1c[nH]cn1)NC(=O)[C@@H]1CSSC[C@H](N)C(=O)N[C@@H](CO)C(=O)N[C@@H](CO)C(=O)N[C@@H](C(C)C)C(=O)N[C@@H](Cc2ccc(O)cc2)C(=O)N[C@@H](Cc2ccccc2)C(=O)N1)C(=O)N[C@H](C(=O)N[C@@H](Cc1c[nH]c2ccccc12)C(=O)O)[C@@H](C)CC` (H-CSSVYFCHLDIIW-OH; disulfide 1-7), the IC50 in assay [2] worked out at 1400 nM; on Endothelin-1 receptor it was 1800 nM.

The compound `CC[C@H](C)[C@H](NC(=O)[C@H](CC(=O)O)NC(=O)[C@H](CC(C)C)NC(=O)[C@H](Cc1c[nH]cn1)NC(=O)[C@@H]1CSSC[C@H](N)C(=O)N[C@@H](CO)C(=O)NCCCCCCCC(=O)N[C@@H](C(C)C)C(=O)N[C@@H](Cc2ccc(O)cc2)C(=O)N[C@@H](Cc2ccccc2)C(=O)N1)C(=O)N[C@H](C(=O)N[C@@H](Cc1c[nH]c2ccccc12)C(=O)O)[C@@H](C)CC` (H-CS[Aoc]VYFCHLDIIW-OH; disulfide 1-7) gave an IC50 in the assay filed under Rattus norvegicus of 3000 nM.

As to `CC[C@H](C)[C@H](NC(=O)[C@H](CC(=O)O)NC(=O)[C@H](CC(C)C)NC(=O)[C@H](Cc1cnc[nH]1)NC(=O)[C@@H]1CSSC[C@H](N)C(=O)N[C@@H](CO)C(=O)NCCCCCCCC(=O)N[C@@H](C(C)C)C(=O)N[C@@H](Cc2ccc(O)cc2)C(=O)N[C@@H](Cc2ccccc2)C(=O)N1)C(=O)N[C@H](C(=O)N[C@@H](Cc1c[nH]c2ccccc12)C(=O)O)[C@@H](C)CC` (H-CS[Aoc]VYFCHLDIIW-OH; disulfide 1-7), the IC50 in assay [2] is 240 nM; on Endothelin-1 receptor it was 1600 nM. Regarding `CC[C@H](C)[C@H](NC(=O)[C@H](CC(=O)O)NC(=O)[C@H](CC(C)C)NC(=O)[C@H](Cc1c[nH]cn1)NC(=O)[C@@H]1CSSC[C@H](N)C(=O)N[C@@H](CO)C(=O)NCCCCCCC(=O)N[C@@H](C(C)C)C(=O)N[C@@H](Cc2ccc(O)cc2)C(=O)N[C@@H](Cc2ccccc2)C(=O)N1)C(=O)N[C@H](C(=O)N[C@@H](Cc1c[nH]c2ccccc12)C(=O)O)[C@@H](C)CC` [listing 1 of 2 here], the IC50 on Endothelin-1 receptor amounted to 2500 nM. On to `CC[C@H](C)[C@H](NC(=O)[C@H](CC(=O)O)NC(=O)[C@H](CC(C)C)NC(=O)[C@H](Cc1c[nH]cn1)NC(=O)[C@@H]1CSSC[C@H](N)C(=O)N[C@@H](C(C)C)C(=O)N[C@@H](Cc2ccc(O)cc2)C(=O)N[C@@H](Cc2ccccc2)C(=O)N1)C(=O)N[C@H](C(=O)N[C@@H](Cc1c[nH]c2ccccc12)C(=O)O)[C@@H](C)CC` (H-CVYFCHLDIIW-OH; disulfide 1-5), for which the IC50 in assay [2] came to 1700 nM; in the assay filed under Rattus norvegicus it was 2200 nM; at Endothelin-1 receptor it was 6500 nM. As to `CC[C@H](C)[C@H](NC(=O)[C@H](CC(=O)O)NC(=O)[C@H](CC(C)C)NC(=O)[C@H](Cc1c[nH]cn1)NC(=O)[C@@H]1CSSC[C@H](N)C(=O)N[C@@H](CO)C(=O)NCCCCC(=O)N[C@@H](C(C)C)C(=O)N[C@@H](Cc2ccc(O)cc2)C(=O)N[C@@H](Cc2ccccc2)C(=O)N1)C(=O)N[C@H](C(=O)N[C@@H](Cc1c[nH]c2ccccc12)C(=O)O)[C@@H](C)CC` (H-CS[Ava]VYFCHLDIIW-OH; disulfide 1-7), the IC50 in assay [1] is 350 nM; in the assay filed under Rattus norvegicus, more than 10000 nM; at Endothelin-1 receptor, 1800 nM.

Take `CC[C@H](C)[C@H](NC(=O)[C@H](CC(=O)O)NC(=O)[C@H](CC(C)C)NC(=O)[C@H](Cc1c[nH]cn1)NC(=O)[C@@H]1CSSC[C@H](N)C(=O)N[C@@H](CO)C(=O)N[C@@H](CO)C(=O)N[C@@H](CO)C(=O)N[C@@H](C(C)C)C(=O)N[C@@H](Cc2ccc(O)cc2)C(=O)N[C@@H](Cc2ccccc2)C(=O)N1)C(=O)N[C@H](C(=O)N[C@@H](Cc1c[nH]c2ccccc12)C(=O)O)[C@@H](C)CC` (H-CSSSVYFCHLDIIW-OH; disulfide 1-8): the IC50 in assay [2] stood at 60 nM; in the assay filed under Rattus norvegicus it was 5000 nM; on Endothelin-1 receptor, 1200 nM. `CC[C@H](C)[C@H](NC(=O)[C@H](CC(=O)O)NC(=O)[C@H](CC(C)C)NC(=O)[C@H](Cc1c[nH]cn1)NC(=O)[C@@H]1CSSC[C@H](N)C(=O)N[C@@H](CO)C(=O)N[C@@H](CC(=O)O)C(=O)N[C@@H](CCCCN)C(=O)N[C@@H](CCC(=O)O)C(=O)N[C@@H](C(C)C)C(=O)N[C@@H](Cc2ccc(O)cc2)C(=O)N[C@@H](Cc2ccccc2)C(=O)N1)C(=O)N[C@H](C(=O)N[C@@H](Cc1c[nH]c2ccccc12)C(=O)O)[C@@H](C)CC` (H-CSDKEVYFCHLDIIW-OH; disulfide 1-9) [listing 2 of 2 here]: the figures for the IC50 (in assay [2]; at Endothelin-1 receptor) were 1100 nM and 3500 nM, respectively. `CC[C@H](C)[C@H](NC(=O)[C@H](CC(=O)O)NC(=O)[C@H](CC(C)C)NC(=O)[C@H](Cc1c[nH]cn1)NC(=O)[C@@H]1CSSC[C@H](N)C(=O)N[C@@H](CO)C(=O)NCCCCCCC(=O)N[C@@H](C(C)C)C(=O)N[C@@H](Cc2ccc(O)cc2)C(=O)N[C@@H](Cc2ccccc2)C(=O)N1)C(=O)N[C@H](C(=O)N[C@@H](Cc1c[nH]c2ccccc12)C(=O)O)[C@@H](C)CC` [listing 2 of 2 here]: in the assay filed under Rattus norvegicus, the IC50 turned out to be 8000 nM. Turning to `CC[C@H](C)[C@H](NC(=O)[C@H](CC(=O)O)NC(=O)[C@H](CC(C)C)NC(=O)[C@H](Cc1c[nH]cn1)NC(=O)[C@@H]1CSSC[C@H](N)C(=O)N[C@@H](CO)C(=O)N[C@@H](C(C)C)C(=O)N[C@@H](Cc2ccc(O)cc2)C(=O)N[C@@H](Cc2ccccc2)C(=O)N1)C(=O)N[C@H](C(=O)N[C@@H](Cc1c[nH]c2ccccc12)C(=O)O)[C@@H](C)CC` (H-CSVYFCHLDIIW-OH; disulfide 1-6), the IC50 was 1700 nM in assay [2] and 2800 nM at Endothelin-1 receptor.
